The text below walks through data of US10752587B2, “Homobispiperidinyl derivatives as liver X receptor beta agonists, compositions and their use” (Merck Sharp & Dohme Corp., priority 2015, dated 2020).

Assay [1] has as its target T1, glutathione-S-transferase (GST) tagged LXRbeta LBD (ligand binding domain) (Homo sapiens, UniProt P55055).
T1 construct: purchased Invitrogen pv4658.pps
T1 sequence (P55055 222-460 limits assumed): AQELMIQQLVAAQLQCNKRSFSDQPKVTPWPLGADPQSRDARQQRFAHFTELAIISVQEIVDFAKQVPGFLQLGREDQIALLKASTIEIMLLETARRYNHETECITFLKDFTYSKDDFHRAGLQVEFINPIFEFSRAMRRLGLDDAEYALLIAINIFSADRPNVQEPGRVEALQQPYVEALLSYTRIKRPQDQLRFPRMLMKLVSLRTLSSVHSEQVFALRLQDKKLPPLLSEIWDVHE
As to the kind of experiment: LanthaScreen TR-FRET Liver X Receptor Coactivator Assay, co-activator recruitment to LXRbeta LBD. Format: biochemical. The method in brief: (§1)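 Readout is time-resolved FRET between a terbium anti-GST antibody bound to the LBD and a fluorescein-tagged coactivator peptide recruited on ligand binding. Plates were incubated at room temperature before reading. Potency (IP) and efficacy (Emax) are referenced to T0901317.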

The target of assay [2] is T2, glutathione-S-transferase (GST) tagged LXRalpha LBD (ligand binding domain) (Homo sapiens, UniProt Q13133).
T2 construct: purchased Invitrogen pv4655
T2 sequence (Q13133 209-447 limits assumed): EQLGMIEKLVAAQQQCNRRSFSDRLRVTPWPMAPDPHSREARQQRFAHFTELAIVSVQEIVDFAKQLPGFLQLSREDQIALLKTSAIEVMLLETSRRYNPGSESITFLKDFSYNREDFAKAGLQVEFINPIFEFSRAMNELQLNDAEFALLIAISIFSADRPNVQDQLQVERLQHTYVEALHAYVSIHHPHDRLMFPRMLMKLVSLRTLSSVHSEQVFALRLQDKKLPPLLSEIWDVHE
In words: LanthaScreen TR-FRET Liver X Receptor Coactivator Assay, co-activator recruitment to LXRalpha LBD. Format: biochemical. The method in brief:
as §1

[3] abbreviates: efficacy at max dose, in relation to reference dual agonist T0901317, read-out: LXR beta Activity @ max dose (%).
[4] abbreviates: potency (Inflection Point, IP), co-activator recruitment to LXRbeta LBD, in relation to T0901317, read-out: LXR beta IP.
Where [5] appears, read: efficacy at max dose, in relation to reference dual agonist T0901317, read-out: LXR alpha Activity @ max dose (%).
[6] abbreviates: potency (Inflection Point, IP), co-activator recruitment to LXRalpha LBD, in relation to T0901317.
The mark [7] stands for this setting: potency (Inflection Point, IP), co-activator recruitment to LXRalpha LBD, in relation to T0901317, read-out: LXR alpha IP.
Setting [8] is: co-activator recruitment to GST-LXRbeta LBD, TR-FRET, read-out: LXR beta IP (Inflection Point, potency).
Where [9] appears, read: efficacy in relation to reference dual agonist T0901317, read-out: LXR beta Activity @ max dose.
The mark [10] stands for this setting: efficacy in relation to reference dual agonist T0901317, read-out: LXR alpha Activity @ max dose.

Where two headings read alike, the source gives them in different places.

For the molecule `CNC(=O)c1ccc(N2CCC(CC3CCN(C(=O)[C@](O)(c4cc(Cl)cc(Cl)c4)C(F)(F)F)CC3)CC2)nc1Cl` [Example 7-134, 2-chloro-6-[4-({1-[(2R)-2-(3,5-dichlorophenyl)-3,3,3-trifluoro-2-hydroxypropanoyl]piperidin-4-yl}methyl)piperidin-1-yl]-N-methylpyridine-3-carboxamide], the Emax in assay [1] (setting [3]) is 78%; in assay [2] (setting [5]), 14%. The EC50 in assay [1] (setting [4]) stood at 9 nM. For the same molecule, the “LXR alpha IP (nM)” value in assay [2] (setting [6]) is recorded as “NO IP”.
Regarding `CNC(=O)c1ccc(N2CCC(CC3CCN(C(=O)C4(c5ccccc5F)CCCC4)CC3)CC2)cc1Cl` [Example 7-34, 2-chloro-4-{4-[(1-{[1-(2-fluorophenyl)cyclopentyl]carbonyl}piperidin-4-yl)methyl]piperidin-1-yl}-N-methylbenzamide], the results for the Emax in assay [1] (setting [3]) and in assay [2] (setting [5]) were 82% and 19%, respectively. Besides, the EC50 in assay [1] (setting [4]) came to 169 nM; in assay [2] (setting [7]), 2190 nM.
Regarding `COc1cccc([C@@](O)(C(=O)N2CC(CC3CCN(c4ccc(C(=O)N(C)C)c(Cl)c4)CC3)C2)C(F)F)c1` [Example 2-70, 2-chloro-4-[4-({1-[(2R)-3,3-difluoro-2-hydroxy-2-(3-methoxy-phenyl)propanoyl]azetidin-3-yl}methyl)piperidin-1-yl]-N,N-dimethyl-benzamide], the Emax was 48% in assay [1] (setting [3]) and 2% in assay [2] (setting [5]). Also, the EC50 in assay [1] (setting [4]) is 92 nM. Moreover, in assay [2] (setting [6]), the “LXR alpha IP (nM)” value is listed as “NO IP”.
As to `CNC(=O)c1ccc(N2CCC(CC3CCN(C(=O)C(O)(c4cccnc4)C(F)(F)F)CC3)CC2)nc1Cl` (centres unmarked) [Example 7-142, 2-chloro-N-methyl-6-(4-{[1-(3,3,3-trifluoro-2-hydroxy-2-pyridin-3-ylpropanoyl)piperidin-4-yl]methyl}piperidin-1-yl)pyridine-3-carboxamide], the values for the Emax in assay [1] (setting [3]) and in assay [2] (setting [5]) were 133% and 81%, respectively. Also, the figures for the EC50 in assay [1] (setting [4]) and in assay [2] (setting [7]) were 99 nM and 2550 nM, respectively.
As for `CN(CCn1cncn1)C(=O)c1ccc(N2CCC(CC3CCN(C(=O)[C@](O)(c4cc(Cl)cc(Cl)c4)C(F)(F)F)CC3)CC2)cc1Cl` [Example 4-26, 2-chloro-4-[4-({1-[(2R)-2-(3,5-dichlorophenyl)-3,3,3-trifuoro-2-hydroxypropanoyl]piperidin-4-yl}methyl)piperidin-1-yl]-N-methyl-N-[2-(1H-1,2,4-triazol-1-yl)ethyl]benzamide], the Emax in assay [1] (setting [3]) was found to be 67%; in assay [2] (setting [5]), 3%. Besides, the EC50 in assay [1] (setting [4]) was 4 nM. In addition, the “LXR alpha IP (nM)” value in assay [2] (setting [6]) is on record as “NO IP”.
Turning to `CN(C)C(=O)c1ncc(N2CCC(CC3CCN(C(=O)C(O)(c4cccc(Cl)c4)C(F)(F)F)CC3)CC2)cc1Cl` (centres unmarked) [Example 2-6, 3-chloro-5-[4-({1-[2-(3-chlorophenyl)-3,3,3-trifluoro-2-hydroxy-propanoyl]piperidin-4-yl}methyl)piperidin-1-yl]-N,N-dimethylpyridine-2-carboxamide], the Emax was determined as 60% in assay [1] (setting [3]) and 26% in assay [2] (setting [5]). Besides, the EC50 in assay [1] (setting [4]) turned out to be 22 nM; in assay [2] (setting [7]), 875 nM.
For `CCOc1cccc([C@@](O)(C(=O)N2CCC(CC3(C)CCN(c4ccc(C(=O)N(C)C)c(OC)n4)CC3)CC2)C(F)(F)F)c1` [Example 7-24], the Emax in assay [1] (setting [3]) worked out at 106%; in assay [2] (setting [5]) it was 7%. In addition, the EC50 in assay [1] (setting [4]) was found to be 92 nM. Moreover, the “LXR alpha IP (nM)” value in assay [2] (setting [6]) is given as “NO IP”.
In the case of `CN(C)C(=O)c1ccc(N2CCC(CC3CCN(S(=O)(=O)c4ccc(Cl)s4)CC3)CC2)cc1Cl` [Example 13-9, 2-chloro-4-[4-({1-[(5-chlorothiophen-2-yl)-sulfonyl]piperidin-4-yl}methyl)piperidin-1-yl]-N,N-dimethylbenzamide], the EC50 in assay [1] (setting [8]) is 230 nM. Also, the Emax in assay [1] (setting [9]) amounted to 20%; in assay [2] (setting [10]), 0%. For the same molecule, in assay [2] (co-activator recruitment to GST-LXRalpha LBD, TR-FRET), the “LXR alpha IP (Inflection Point, potency)” value is on record as “NO IP”.
With `CNC(=O)c1ccc(N2CCC(CC3CCN(C(=O)[C@](O)(c4cccc(OC)c4)C(F)(F)F)CC3)CC2)nc1Cl` [Example 7-135, 2-chloro-N-methyl-6-[4-({1-[(2R)-3,3,3-trifluoro-2-hydroxy-2-(3-methoxyphenyl)propanoyl]piperidin-4-yl}methyl)piperidin-1-yl]pyridine-3-carboxamide], the Emax in assay [1] (setting [3]) is 81%; in assay [2] (setting [5]) it was 14%. The EC50 in assay [1] (setting [4]) was determined as 13 nM. For the same molecule, the “LXR alpha IP (nM)” value in assay [2] (setting [6]) was “NO IP”.
On the same counts, the results for `CN(C)C(=O)c1ccc(N2CCC(CC3CCN(C(=O)C(C)(C)c4ccccc4)CC3)CC2)cc1Cl` [Example 2-1, 2-chloro-N,N-dimethyl-4-(4-((1-(2-methyl-2-phenylpropanoyl)piperidin-4-yl)methyl)piperidin-1-yl)benzamide] are 59%, 5%, 157 nM and “NO IP”.
In the case of `Cc1cc(N2CCC(CC3CN(C(=O)[C@](O)(c4cc(F)cc(Cl)c4)C(F)(F)F)C3)CC2)ccc1C(=O)N(C)C` [Example 2-81, 4-[4-({1-[(2R)-2-(3-chloro-5-fluorophenyl)-3,3,3-trifluoro-2-hydroxy-propanoyl]azetidin-3-yl}methyl)piperidin-1-yl]-N,N,2-trimethyl-benzamide], the Emax was found to be 103% in assay [1] (setting [3]) and 40% in assay [2] (setting [5]). Moreover, the EC50 is 39 nM in assay [1] (setting [4]) and 798 nM in assay [2] (setting [7]).
In the case of `COc1cccc(S(=O)(=O)N2CC(CC3CCN(c4ccc(C(=O)N(C)C)c(Cl)c4)CC3)C2)c1` [Example 13-2, 2-chloro-4-[4-({1-[(3-methoxyphenyl)-sulfonyl]azetidin-3-yl}methyl)piperidin-1-yl]-N,N-dimethyl-benzamide], the EC50 was determined as 96 nM in assay [1] (setting [8]) and 3390 nM in assay [2] (co-activator recruitment to GST-LXRalpha LBD, TR-FRET, read-out: LXR alpha IP (Inflection Point, potency)). For the same molecule, the figures for the Emax in assay [1] (setting [9]) and in assay [2] (setting [10]) were 70% and 26%, respectively.
Consider `CCc1cccc([C@@](O)(C(=O)N2CCC(CC3CCN(c4ccc(C(=O)N(C)C)c(Cl)c4)CC3)CC2)C(F)(F)F)c1` [Example 2-113, 2-chloro-4-[4-({1-[(2R)-2-(3-ethyl-phenyl)-3,3,3-trifluoro-2-hydroxy-propanoyl]piperidin-4-yl}methyl)piperidin-1-yl]-N,N-dimethyl-benzamide], for which the Emax in assay [1] (setting [3]) is 36%; in assay [2] (setting [5]) it was 4%. The EC50 in assay [1] (setting [4]) worked out at 15 nM. In assay [2] (setting [6]), the “LXR alpha IP (nM)” value is recorded as “NO IP”.
The matching figures for `CC(C)Oc1cccc([C@@](O)(C(=O)N2CC(CC3CCN(c4ccc(C(=O)N(C)C)c(Cl)n4)CC3)C2)C(F)(F)F)c1` [Example 7-42, 2-chloro-N,N-dimethyl-6-{4-[(1-{(2R)-3,3,3-trifluoro-2-hydroxy-2-[3-(1-methylethoxy)phenyl]propanoyl}azetidin-3-yl)methyl]piperidin-1-yl}pyridine-3-carboxamide]: 83%, 9%, 30 nM and “NO IP”.
With `O=C(NCCn1cncn1)c1ccc(N2CCC(CC3CCN(C(=O)[C@](O)(c4cc(Cl)cc(Cl)c4)C(F)(F)F)CC3)CC2)cc1Cl` [Example 7-130, 2-chloro-4-[4-({1-[(2R)-2-(3,5-dichlorophenyl)-3,3,3-trifluoro-2-hydroxypropanoyl]piperidin-4-yl}methyl)piperidin-1-yl]-N-[2-(1H-1,2,4-triazol-1-yl)ethyl]benzamide], the Emax in assay [1] (setting [3]) was found to be 54%; in assay [2] (setting [5]), 7%. Further, in assay [1] (setting [4]), the EC50 turned out to be 73 nM. The “LXR alpha IP (nM)” value in assay [2] (setting [6]) is recorded as “NO IP”.
On the same counts, the results for `COc1cccc([C@@](O)(C(=O)N2CCC(CC3CCN(c4cnc(C(=O)N(C)C)c(Cl)c4)CC3)CC2)C(F)(F)F)c1` [Example 2-3, 3-chloro-N,N-dimethyl-5-[4-({1-[(2R)-3,3,3-trifluoro-2-hydroxy-2-(3-methoxyphenyl)propanoyl]piperidin-4-yl}methyl)piperidin-1-yl]pyridine-2-carboxamide] are 50%, 6%, 26 nM and “NO IP”.
Regarding `CNC(=O)c1ccc(N2CCC(CC3CCN(C(=O)C(O)(c4cc(F)cc(F)c4)C(F)(F)F)CC3)CC2)cc1Cl` (centres unmarked) [Example 7-122, 2-chloro-4-[4-({1-[2-(3,5-difluorophenyl)-3,3,3-trifluoro-2-hydroxypropanoyl]piperidin-4-yl}methyl)piperidin-1-yl]-N-methylbenzamide], the Emax amounted to 104% in assay [1] (setting [3]) and 54% in assay [2] (setting [5]). Moreover, the results for the EC50 in assay [1] (setting [4]) and in assay [2] (setting [7]) were 9 nM and 94 nM, respectively.
